From PubChem BioAssay AID1918993 (Molecular Pharmacology Branch, DTP, NCI, 2023)

System: 233499-124-R-J3-PDC complex spheroid growth
Assay: Anticancer human tumor 233499-124-R-J3-PDC patient-derived colon adenocarcinoma cell line growth inhibition [AhR]
Settings: for IC50: curve of first compound; for viability, T/C: stronger effect = lower value; active means viability on the fitted dose curve at most 10% of control; inactive means the rest
In short: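 Agents were dosed in half-log steps down from roughly clinical Cmax, or from 10 microM where Cmax was unknown, alone and with AhR antagonists. Read-out: percent test/control growth of tumor spheroids containing HUVEC and MSC stromal cells.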
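Further: spheroids exposed to agents for seven days before reading.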

CCc1c2c(nc3ccc(O)cc13)-c1cc3c(c(=O)n1C2)COC(=O)[C@]3(O)CC + Cc1ccccc1N=Nc1ccc(NC(=O)c2ccnn2C)c(C)c1
> 0.3 µM: IC50 (second compound 0.1 µM) | IC50 (second compound 0.316 µM) | IC50 (second compound 1 µM) | IC50 (second compound 3.16 µM) | IC50 (second compound 10 µM)
inactive: viability, T/C (second compound 0.1 µM, first compound 0.000949 µM) 95.3% | viability, T/C (second compound 0.1 µM, first compound 0.003 µM) 103% | viability, T/C (second compound 0.1 µM, first compound 0.00949 µM) 102% | viability, T/C (second compound 0.1 µM, first compound 0.03 µM) 81.8% | viability, T/C (second compound 0.1 µM, first compound 0.0949 µM) 90.4% | viability, T/C (second compound 0.1 µM, first compound 0.3 µM) 76.6% | viability, T/C (second compound 0.316 µM, first compound 0.000949 µM) 87.6% | viability, T/C (second compound 0.316 µM, first compound 0.003 µM) 91.4% | viability, T/C (second compound 0.316 µM, first compound 0.00949 µM) 88.5% | viability, T/C (second compound 0.316 µM, first compound 0.03 µM) 75.4% | viability, T/C (second compound 0.316 µM, first compound 0.0949 µM) 77.8% | viability, T/C (second compound 0.316 µM, first compound 0.3 µM) 88% | viability, T/C (second compound 1 µM, first compound 0.000949 µM) 105% | viability, T/C (second compound 1 µM, first compound 0.003 µM) 113% | viability, T/C (second compound 1 µM, first compound 0.00949 µM) 102% | viability, T/C (second compound 1 µM, first compound 0.03 µM) 78.3% | viability, T/C (second compound 1 µM, first compound 0.0949 µM) 84.5% | viability, T/C (second compound 1 µM, first compound 0.3 µM) 86.2% | viability, T/C (second compound 3.16 µM, first compound 0.000949 µM) 91.5% | viability, T/C (second compound 3.16 µM, first compound 0.003 µM) 105% | viability, T/C (second compound 3.16 µM, first compound 0.00949 µM) 86.5% | viability, T/C (second compound 3.16 µM, first compound 0.03 µM) 86.9% | viability, T/C (second compound 3.16 µM, first compound 0.0949 µM) 91.8% | viability, T/C (second compound 3.16 µM, first compound 0.3 µM) 73.4% | viability, T/C (second compound 10 µM, first compound 0.000949 µM) 107% | viability, T/C (second compound 10 µM, first compound 0.003 µM) 90.6% | viability, T/C (second compound 10 µM, first compound 0.00949 µM) 104% | viability, T/C (second compound 10 µM, first compound 0.03 µM) 103% | viability, T/C (second compound 10 µM, first compound 0.0949 µM) 106% | viability, T/C (second compound 10 µM, first compound 0.3 µM) 101%

COc1cc(Nc2ncc3c(n2)-c2ccc(Cl)cc2C(c2c(F)cccc2OC)=NC3)ccc1C(=O)O + Cc1ccccc1N=Nc1ccc(NC(=O)c2ccnn2C)c(C)c1
> 10 µM: IC50 (second compound 0.1 µM) | IC50 (second compound 0.316 µM) | IC50 (second compound 1 µM) | IC50 (second compound 3.16 µM) | IC50 (second compound 10 µM)
inactive: viability, T/C (second compound 0.1 µM, first compound 0.0316 µM) 92.5% | viability, T/C (second compound 0.1 µM, first compound 0.1 µM) 81.9% | viability, T/C (second compound 0.1 µM, first compound 0.316 µM) 96.3% | viability, T/C (second compound 0.1 µM, first compound 1 µM) 98.5% | viability, T/C (second compound 0.1 µM, first compound 3.16 µM) 86.5% | viability, T/C (second compound 0.1 µM, first compound 10 µM) 96.7% | viability, T/C (second compound 0.316 µM, first compound 0.0316 µM) 83.1% | viability, T/C (second compound 0.316 µM, first compound 0.1 µM) 77.5% | viability, T/C (second compound 0.316 µM, first compound 0.316 µM) 96.4% | viability, T/C (second compound 0.316 µM, first compound 1 µM) 93.1% | viability, T/C (second compound 0.316 µM, first compound 3.16 µM) 96.6% | viability, T/C (second compound 0.316 µM, first compound 10 µM) 84.2% | viability, T/C (second compound 1 µM, first compound 0.0316 µM) 89% | viability, T/C (second compound 1 µM, first compound 0.1 µM) 93.2% | viability, T/C (second compound 1 µM, first compound 0.316 µM) 90.4% | viability, T/C (second compound 1 µM, first compound 1 µM) 87.2% | viability, T/C (second compound 1 µM, first compound 3.16 µM) 97.5% | viability, T/C (second compound 1 µM, first compound 10 µM) 92.1% | viability, T/C (second compound 3.16 µM, first compound 0.0316 µM) 91.5% | viability, T/C (second compound 3.16 µM, first compound 0.1 µM) 80.4% | viability, T/C (second compound 3.16 µM, first compound 0.316 µM) 102% | viability, T/C (second compound 3.16 µM, first compound 1 µM) 105% | viability, T/C (second compound 3.16 µM, first compound 3.16 µM) 85.2% | viability, T/C (second compound 3.16 µM, first compound 10 µM) 100% | viability, T/C (second compound 10 µM, first compound 0.0316 µM) 109% | viability, T/C (second compound 10 µM, first compound 0.1 µM) 101% | viability, T/C (second compound 10 µM, first compound 0.316 µM) 102% | viability, T/C (second compound 10 µM, first compound 1 µM) 101% | viability, T/C (second compound 10 µM, first compound 3.16 µM) 116% | viability, T/C (second compound 10 µM, first compound 10 µM) 115%
